This note sets out measurements from patent publication US20230242585A1, “IMMUNOMODULATORS” (Bristol-Myers Squibb Company, priority 2020, published 2023).

Starred links: 1 amine or outer side, 2 acyl side, 3 side chain; linkers in the order of their positions; H or OH if unused. Positions of bridges follow the written chain, without caps; N, C: chain ends. Non-standard residues stand in square brackets, D forms with d. Residues, ends and D or L forms follow the SMILES beside them. X53 = O=C([C@H](CCNC[C@H](O)[C@@H](O)[C@H](O)C(O)CO[C@H]1O[C@H](CO)[C@H](O)[C@H](O)[C@H]1O)N[*:1])[*:2]; X39 = O=C([C@H](CNC[C@H](O)[C@@H](O)[C@H](O)C(O)CO[C@H]1O[C@H](CO)[C@H](O)[C@H](O)[C@H]1O)N[*:1])[*:2]; X54 = O=C([C@H](CCNC[C@@H](O)C(O)[C@H](O[C@@H]1OC(CO)[C@@H](O)C(O)C1O)C(O)CO)N[*:1])[*:2]; X42 = O=C([C@H](CNC[C@@H](O)C(O)[C@H](O[C@@H]1OC(CO)[C@@H](O)C(O)C1O)C(O)CO)N[*:1])[*:2]; X41 = O=C([C@H](CCNC1[C@@H](O)[C@@H](O)[C@@H](O)[C@H](O)[C@H]1O)N[*:1])[*:2]; X40 = O=C([C@H](CNC1[C@@H](O)[C@@H](O)[C@@H](O)[C@H](O)[C@H]1O)N[*:1])[*:2]; X44 = O=C([C@H](CCNC[C@@H](O)[C@H](O)[C@@H](O)[C@@H](O)CO)N[*:1])[*:2]; X43 = O=C([C@H](CNC[C@@H](O)[C@H](O)[C@@H](O)[C@@H](O)CO)N[*:1])[*:2]; X9 = O=C([C@H](CCNC[C@@H](O)[C@@H](O)[C@@H](O)[C@H](O)CO)N[*:1])[*:2]; X66 = C[C@H](O)[C@H](O)[C@@H](O)[C@@H](O)CNCC[C@H](N[*:1])C(=O)[*:2]; X8 = O=C([C@H](CNC[C@@H](O)[C@@H](O)[C@@H](O)[C@H](O)CO)N[*:1])[*:2]; X52 = C[C@H](O)[C@H](O)[C@@H](O)[C@@H](O)CNC[C@H](N[*:1])C(=O)[*:2]; Trp(1-CH2COOH) = N[C@@H](Cc1cn(CC(=O)O)c2ccccc12)C(=O)O; X37 = O=C([C@H](CNCC[C@@H](O)C(O)CO)N[*:1])[*:2]; X38 = O=C([C@H](CCNCC[C@H](O)C(O)CO)N[*:1])[*:2]; Hyp = O=C(O)[C@@H]1C[C@@H](O)CN1; NMeNle = CCCC[C@H](NC)C(=O)O; NMeA = CN[C@@H](C)C(=O)O; Dab = NCC[C@H](N)C(=O)O

T1 sequence (Q9NZQ7 18-239): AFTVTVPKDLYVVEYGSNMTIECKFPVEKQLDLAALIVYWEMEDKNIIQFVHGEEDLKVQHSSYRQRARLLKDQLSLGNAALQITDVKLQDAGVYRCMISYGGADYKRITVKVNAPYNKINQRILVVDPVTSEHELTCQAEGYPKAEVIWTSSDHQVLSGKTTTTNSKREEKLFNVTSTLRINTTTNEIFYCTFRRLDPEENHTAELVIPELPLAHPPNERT

This assay concerns the target T1, PD-1/PD-L1 (Homo sapiens, UniProt Q9NZQ7).
T1 construct: TVMV protease site (linker) (C); made in house; host or cells: HEK293T cells
In words: PD-1/PD-L1 Homogenous Time-Resolved Fluorescence (HTRF) binding assay. Conditions: PD-L1-His 10 nM, PD-1-Ig 20 nM. In short, it runs like this:
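Compounds preincubated 15 min with PD-L1-His (residues 18-239, 10 nM) in dPBS with 0.1% BSA, 0.05% Tween-20, then PD-1-Ig (residues 25-167, 20 nM) for 15 min. Eu-cryptate anti-Ig (1 nM) and APC anti-His (20 nM) equilibrated 30 min; 665/620 nm ratio read, IC50 derived.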
In the case of `CCCC[C@H]1C(=O)N(C)[C@@H](CCCC)C(=O)N[C@@H](CC(C)C)C(=O)N[C@H](C(=O)NCC(N)=O)CSCC(=O)N[C@@H](Cc2ccc(O)cc2)C(=O)N(C)[C@@H](C)C(=O)N[C@@H](CC(N)=O)C(=O)N2CCC[C@H]2C(=O)N[C@@H](CNC2[C@@H](O)[C@@H](O)[C@@H](O)[C@H](O)[C@H]2O)C(=O)N[C@@H](CC(C)C)C(=O)N2C[C@H](O)C[C@H]2C(=O)N[C@@H](Cc2c[nH]c3ccccc23)C(=O)N[C@@H](CCNC2[C@@H](O)[C@@H](O)[C@@H](O)[C@H](O)[C@H]2O)C(=O)N[C@@H](Cc2cn(CC(=O)O)c3ccccc23)C(=O)N1C` (stereo partly shown) [Example 2033] ({CH2CO}-Y[NMeA]NP[X40]L[Hyp]W[X41][Trp(1-CH2COOH)][NMeNle][NMeNle]LCG-NH2; thioether N-14), the IC50 (as a rule, the concentration at which inhibition is half-maximal) turned out to be 8.8 nM.

Take `CCCC[C@H]1C(=O)N(C)[C@@H](CCCC)C(=O)N[C@@H](CC(C)C)C(=O)N[C@H](C(=O)NCC(N)=O)CSCC(=O)N[C@@H](Cc2ccc(O)cc2)C(=O)N(C)[C@@H](C)C(=O)N[C@@H](CC(N)=O)C(=O)N2CCC[C@H]2C(=O)N[C@@H](CNC[C@@H](O)[C@H](O)[C@@H](O)[C@@H](O)CO)C(=O)N[C@@H](CC(C)C)C(=O)N2C[C@H](O)C[C@H]2C(=O)N[C@@H](Cc2c[nH]c3ccccc23)C(=O)N[C@@H](CCNC[C@@H](O)[C@H](O)[C@@H](O)[C@@H](O)CO)C(=O)N[C@@H](Cc2cn(CC(=O)O)c3ccccc23)C(=O)N1C` [Example 2034] ({CH2CO}-Y[NMeA]NP[X43]L[Hyp]W[X44][Trp(1-CH2COOH)][NMeNle][NMeNle]LCG-NH2; thioether N-14): the concentration for half-maximal inhibition (IC50) worked out at 2.7 nM.

Turning to `CCCC[C@H]1C(=O)N(C)[C@@H](CCCC)C(=O)N[C@@H](CC(C)C)C(=O)N[C@H](C(=O)NCC(N)=O)CSCC(=O)N[C@@H](Cc2ccc(O)cc2)C(=O)N(C)[C@@H](C)C(=O)N[C@@H](CC(N)=O)C(=O)N2CCC[C@H]2C(=O)N[C@@H](CNC[C@@H](O)[C@@H](O)[C@@H](O)[C@H](O)CO)C(=O)N[C@@H](CC(C)C)C(=O)N2C[C@H](O)C[C@H]2C(=O)N[C@@H](Cc2c[nH]c3ccccc23)C(=O)N[C@@H](CCNC[C@@H](O)[C@@H](O)[C@@H](O)[C@H](O)CO)C(=O)N[C@@H](Cc2cn(CC(=O)O)c3ccccc23)C(=O)N1C` [Example 2036] ({CH2CO}-Y[NMeA]NP[X8]L[Hyp]W[X9][Trp(1-CH2COOH)][NMeNle][NMeNle]LCG-NH2; thioether N-14), the IC50 is 4.9 nM.

In turn, `CCCC[C@H]1C(=O)N(C)[C@@H](CCCC)C(=O)N[C@@H](CC(C)C)C(=O)N[C@H](C(=O)NCC(N)=O)CSCC(=O)N[C@@H](Cc2ccc(O)cc2)C(=O)N(C)[C@@H](C)C(=O)N[C@@H](CC(N)=O)C(=O)N2CCC[C@H]2C(=O)N[C@@H](CNC[C@H](O)[C@@H](O)[C@H](O)C(O)CO[C@H]2O[C@H](CO)[C@H](O)[C@H](O)[C@H]2O)C(=O)N[C@@H](CC(C)C)C(=O)N2C[C@H](O)C[C@H]2C(=O)N[C@@H](Cc2c[nH]c3ccccc23)C(=O)N[C@@H](CCN)C(=O)N[C@@H](Cc2cn(CC(=O)O)c3ccccc23)C(=O)N1C` (stereo partly shown) [Example 2037] ({CH2CO}-Y[NMeA]NP[X39]L[Hyp]W[Dab][Trp(1-CH2COOH)][NMeNle][NMeNle]LCG-NH2; thioether N-14) showed an IC50 of 11 nM.

The compound `CCCC[C@H]1C(=O)N(C)[C@@H](CCCC)C(=O)N[C@@H](CC(C)C)C(=O)N[C@H](C(=O)NCC(N)=O)CSCC(=O)N[C@@H](Cc2ccc(O)cc2)C(=O)N(C)[C@@H](C)C(=O)N[C@@H](CC(N)=O)C(=O)N2CCC[C@H]2C(=O)N[C@@H](CNCC[C@@H](O)C(O)CO)C(=O)N[C@@H](CC(C)C)C(=O)N2C[C@H](O)C[C@H]2C(=O)N[C@@H](Cc2c[nH]c3ccccc23)C(=O)N[C@@H](CCNCC[C@H](O)C(O)CO)C(=O)N[C@@H](Cc2cn(CC(=O)O)c3ccccc23)C(=O)N1C` (stereo partly shown) [Example 2038] ({CH2CO}-Y[NMeA]NP[X37]L[Hyp]W[X38][Trp(1-CH2COOH)][NMeNle][NMeNle]LCG-NH2; thioether N-14) returned an IC50 of 6.7 nM.

As to `CCCC[C@H]1C(=O)N(C)[C@@H](CCCC)C(=O)N[C@@H](CC(C)C)C(=O)N[C@H](C(=O)NCC(N)=O)CSCC(=O)N[C@@H](Cc2ccc(O)cc2)C(=O)N(C)[C@@H](C)C(=O)N[C@@H](CC(N)=O)C(=O)N2CCC[C@H]2C(=O)N[C@@H](CNC[C@@H](O)C(O)[C@H](O[C@@H]2OC(CO)[C@@H](O)C(O)C2O)C(O)CO)C(=O)N[C@@H](CC(C)C)C(=O)N2C[C@H](O)C[C@H]2C(=O)N[C@@H](Cc2c[nH]c3ccccc23)C(=O)N[C@@H](CCN)C(=O)N[C@@H](Cc2cn(CC(=O)O)c3ccccc23)C(=O)N1C` (stereo partly shown) [Example 2039] ({CH2CO}-Y[NMeA]NP[X42]L[Hyp]W[Dab][Trp(1-CH2COOH)][NMeNle][NMeNle]LCG-NH2; thioether N-14), the half-maximal inhibitory concentration (IC50) is 5.2 nM.

For the compound `CCCC[C@H]1C(=O)N(C)[C@@H](CCCC)C(=O)N[C@@H](CC(C)C)C(=O)N[C@H](C(=O)NCC(N)=O)CSCC(=O)N[C@@H](Cc2ccc(O)cc2)C(=O)N(C)[C@@H](C)C(=O)N[C@@H](CC(N)=O)C(=O)N2CCC[C@H]2C(=O)N[C@@H](CNC[C@@H](O)C(O)[C@H](O[C@@H]2OC(CO)[C@@H](O)C(O)C2O)C(O)CO)C(=O)N[C@@H](CC(C)C)C(=O)N2C[C@H](O)C[C@H]2C(=O)N[C@@H](Cc2c[nH]c3ccccc23)C(=O)N[C@@H](CCNC[C@@H](O)C(O)[C@H](O[C@@H]2OC(CO)[C@@H](O)C(O)C2O)C(O)CO)C(=O)N[C@@H](Cc2cn(CC(=O)O)c3ccccc23)C(=O)N1C` (stereo partly shown) [Example 2040] ({CH2CO}-Y[NMeA]NP[X42]L[Hyp]W[X54][Trp(1-CH2COOH)][NMeNle][NMeNle]LCG-NH2; thioether N-14), the half-inhibitory concentration (IC50) came to 6.3 nM.

`CCCC[C@H]1C(=O)N(C)[C@@H](CCCC)C(=O)N[C@@H](CC(C)C)C(=O)N[C@H](C(=O)NCC(N)=O)CSCC(=O)N[C@@H](Cc2ccc(O)cc2)C(=O)N(C)[C@@H](C)C(=O)N[C@@H](CC(N)=O)C(=O)N2CCC[C@H]2C(=O)N[C@@H](CNC[C@H](O)[C@@H](O)[C@H](O)C(O)CO[C@H]2O[C@H](CO)[C@H](O)[C@H](O)[C@H]2O)C(=O)N[C@@H](CC(C)C)C(=O)N2C[C@H](O)C[C@H]2C(=O)N[C@@H](Cc2c[nH]c3ccccc23)C(=O)N[C@@H](CCNC[C@H](O)[C@@H](O)[C@H](O)C(O)CO[C@H]2O[C@H](CO)[C@H](O)[C@H](O)[C@H]2O)C(=O)N[C@@H](Cc2cn(CC(=O)O)c3ccccc23)C(=O)N1C` (stereo partly shown) [Example 2041] ({CH2CO}-Y[NMeA]NP[X39]L[Hyp]W[X53][Trp(1-CH2COOH)][NMeNle][NMeNle]LCG-NH2; thioether N-14) returned an IC50 of 7.2 nM.

`CCCC[C@H]1C(=O)N(C)[C@@H](CCCC)C(=O)N[C@@H](CC(C)C)C(=O)N[C@H](C(=O)NCC(N)=O)CSCC(=O)N[C@@H](Cc2ccc(O)cc2)C(=O)N(C)[C@@H](C)C(=O)N[C@@H](CC(N)=O)C(=O)N2CCC[C@H]2C(=O)N[C@@H](CNC[C@H](O)[C@H](O)[C@@H](O)[C@H](C)O)C(=O)N[C@@H](CC(C)C)C(=O)N2C[C@H](O)C[C@H]2C(=O)N[C@@H](Cc2c[nH]c3ccccc23)C(=O)N[C@@H](CCN)C(=O)N[C@@H](Cc2cn(CC(=O)O)c3ccccc23)C(=O)N1C` [Example 2042] ({CH2CO}-Y[NMeA]NP[X52]L[Hyp]W[Dab][Trp(1-CH2COOH)][NMeNle][NMeNle]LCG-NH2; thioether N-14) displayed an IC50 of 6.7 nM.

Compound `CCCC[C@H]1C(=O)N(C)[C@@H](CCCC)C(=O)N[C@@H](CC(C)C)C(=O)N[C@H](C(=O)NCC(N)=O)CSCC(=O)N[C@@H](Cc2ccc(O)cc2)C(=O)N(C)[C@@H](C)C(=O)N[C@@H](CC(N)=O)C(=O)N2CCC[C@H]2C(=O)N[C@@H](CNC[C@H](O)[C@H](O)[C@@H](O)[C@H](C)O)C(=O)N[C@@H](CC(C)C)C(=O)N2C[C@H](O)C[C@H]2C(=O)N[C@@H](Cc2c[nH]c3ccccc23)C(=O)N[C@@H](CCNC[C@H](O)[C@H](O)[C@@H](O)[C@H](C)O)C(=O)N[C@@H](Cc2cn(CC(=O)O)c3ccccc23)C(=O)N1C` [Example 2044] ({CH2CO}-Y[NMeA]NP[X52]L[Hyp]W[X66][Trp(1-CH2COOH)][NMeNle][NMeNle]LCG-NH2; thioether N-14) yielded an IC50 of 12 nM.
